Results as given in the supplement of paper PMC8671470.
± gives the standard deviation of the averaged measurements.

Columns and labels:
Settings in all cases: 72 h
BV-173 [1] = test system: BV-173
Method in brief: (§1)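 In 384-well plates holding acoustically pre-printed compounds at five tenfold doses from 1 to 10,000 nM, in duplicate, fifteen myeloid leukaemia cell lines were grown in RPMI 1640 for 72 h at 37 °C with 5% CO2. Luminescent ATP viability was scaled between vehicle and a positive control at 10 µM. The IC50 was then taken from log-logistic dose–response fits with four parameters.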

HEL [2] = test system: HEL
Method in brief: as §1

HL-60 [3] = test system: HL-60
Method in brief: as §1

K-562 [4] = test system: K-562
Method in brief: as §1

KCL-22 [5] = test system: KCL-22
Method in brief: as §1

KG-1 = test system: KG-1
Method in brief: as §1

KU-812 [6] = test system: KU-812
Method in brief: as §1

LAMA-84 [7] = test system: LAMA-84
Method in brief: as §1

ML-2 [8] = test system: ML-2
Method in brief: as §1

MOLM-13 = test system: MOLM-13
Method in brief: as §1

MV4-11 = test system: MV4-11
Method in brief: as §1

Mono-Mac-6 [9] = test system: Mono-Mac-6
Method in brief: as §1

NOMO-1 [10] = test system: NOMO-1
Method in brief: as §1

SHI-1 [11] = test system: SHI-1
Method in brief: as §1

THP-1 = test system: THP-1
Method in brief: as §1

HL-60 [12] = experiment: cell viability (% survival relative to DMSO control); higher = less cytotoxic
Method in brief: (§2)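 HL-60 cells in RPMI 1640 with 10% FBS were rescreened against the full library on 384-well plates at five tenfold concentrations, 1–10,000 nM, in duplicate. Each screen was run with DMSO or 100 nM of one of three metabolic inhibitors, for 72 h at 37 °C, 5% CO2. Viability was read by CellTiter-Glo and normalised to DMSO and 10 μM proteasome-inhibitor wells. Where given, area under the curve came from four-parameter log-logistic fits (drc, PharmacoGx).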

BV-173 [13] = experiment: cell viability (% survival relative to DMSO control, bortezomib = 0%); higher = less cytotoxic
Method in brief: (§3)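 Percent survival is reported as the mean of duplicate wells. Cells from 10 AML and 5 CML lines were plated in 384-well plates containing compounds at 1, 10, 100, 1000 or 10000 nM and kept for 72 h at 37 °C in 5% CO2. Readout used CellTiter-Glo luminescence, scaled so that vehicle equals 100% and a 10 µM positive control equals 0%.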

HEL [14] = experiment: as above
Method in brief: as §3

HL-60 [15] = experiment: as above
Method in brief: as §3

K-562 [16] = experiment: as above
Method in brief: as §3

KCL-22 [17] = experiment: as above
Method in brief: as §3

KU-812 [18] = experiment: as above
Method in brief: as §3

LAMA-84 [19] = experiment: as above
Method in brief: as §3

ML-2 [20] = experiment: as above
Method in brief: as §3

Mono-Mac-6 [21] = experiment: as above
Method in brief: as §3

NOMO-1 [22] = experiment: as above
Method in brief: as §3

SHI-1 [23] = experiment: as above
Method in brief: as §3

HL-60 [24] = experiment: area under dose-response curve (viability, 1 nM-10 uM) (fraction (0-1)); higher = more sensitive
Method in brief: as §2

CCCCCCCCCCCC(=O)c1c(O)c(C(=O)CCCCCCCCCCC)c(O)c(C2CC(c3ccc(O)cc3)Oc3cc(O)ccc32)c1O (centres undefined)
Settings | IC50 (cell viability) [µM]
BV-173 [1] | > 10
HEL [2] | > 10
HL-60 [3] | > 10
K-562 [4] | > 10
KCL-22 [5] | > 10
KG-1 | > 10
KU-812 [6] | > 10
LAMA-84 [7] | > 10
ML-2 [8] | > 10
MOLM-13 | > 10
MV4-11 | > 10
Mono-Mac-6 [9] | > 10
NOMO-1 [10] | > 10
SHI-1 [11] | > 10
THP-1 | > 10

cell viability [%], HL-60 [12]
Settings | 0.001 µM | 0.01 µM | 0.1 µM | 1 µM | 10 µM
co-treatment: AZD3965 100 nM | 95.8 ± 4.7 | 104 ± 2.3 | 97.5 ± 3.7 | 107 ± 11 | 101 ± 3.6
co-treatment: DMSO vehicle | 99.8 ± 5.4 | 98.29 ± 0.34 | 99.11 ± 0.51 | 102.2 ± 0.57 | 104.7 ± 0.063
co-treatment: GSK2194069 100 nM | 101 ± 3.5 | 96.5 ± 1.7 | 101 ± 3.1 | 104 ± 11 | 100 ± 3.4
co-treatment: pictilisib 100 nM | 107 ± 18 | 107 ± 1.4 | 99.9 ± 7.8 | 101 ± 3.3 | 95.4 ± 10

cell viability [%]
Settings | 1 nM | 10 nM | 100 nM | 1000 nM | 10000 nM
BV-173 [13] | 119 | 114 | 102 | 101 | 89
HEL [14] | 108 | 97.8 | 115 | 110 | 87
HL-60 [15] | 118 | 119 | 70.4 | 105 | 114
K-562 [16] | 97.9 | 91.5 | 99.4 | 117 | 108
KCL-22 [17] | 107 | 113 | 115 | 123 | 102
KU-812 [18] | 102 | 104 | 110 | 102 | 105
LAMA-84 [19] | 105 | 99.9 | 114 | 103 | 99.1
ML-2 [20] | 105 | 114 | 118 | 116 | 104
Mono-Mac-6 [21] | 86.1 | 112 | 106 | 103 | 91.6
NOMO-1 [22] | 108 | 118 | 110 | 111 | 96.7
SHI-1 [23] | 95.1 | 111 | 102 | 112 | 104

CCOP(=O)(OCC)C(=Cc1cc(C(C)(C)C)c(O)c(C(C)(C)C)c1)P(=O)(OCC)OCC
Settings | IC50 (cell viability) [µM]
BV-173 [1] | > 10
HEL [2] | > 10
HL-60 [3] | > 10
K-562 [4] | > 10
KCL-22 [5] | > 10
KG-1 | > 10
KU-812 [6] | > 10
LAMA-84 [7] | > 10
ML-2 [8] | > 10
MOLM-13 | > 10
MV4-11 | > 10
Mono-Mac-6 [9] | 6.9
NOMO-1 [10] | > 10
SHI-1 [11] | > 10
THP-1 | > 10

cell viability [%], HL-60 [12]
Settings | 0.001 µM | 0.01 µM | 0.1 µM | 1 µM | 10 µM
co-treatment: AZD3965 100 nM | 95.9 ± 1.6 | 101 ± 5.9 | 109 ± 18 | 101 ± 7 | 98 ± 5.1
co-treatment: DMSO vehicle | 100 ± 8 | 105 ± 2.3 | 99.5 ± 2.6 | 104 ± 4 | 105 ± 1.3
co-treatment: GSK2194069 100 nM | 101 ± 4.7 | 104 ± 5 | 102 ± 2 | 102 ± 1.5 | 94.5 ± 9
co-treatment: pictilisib 100 nM | 96.4 ± 4 | 99.31 ± 0.66 | 107 ± 8.3 | 94.9 ± 2 | 103 ± 7.4

Settings | area under dose-response curve, co-treatment: AZD3965 100 nM | area under dose-response curve, co-treatment: DMSO vehicle | area under dose-response curve, co-treatment: GSK2194069 100 nM | area under dose-response curve, co-treatment: pictilisib 100 nM | cell viability, 1 nM [%] | cell viability, 10 nM [%] | cell viability, 100 nM [%] | cell viability, 1000 nM [%] | cell viability, 10000 nM [%]
BV-173 [13] | – | – | – | – | 92.7 | 96.8 | 121 | 89.9 | 64.5
HEL [14] | – | – | – | – | 92.1 | 95.8 | 109 | 89.8 | 108
HL-60 [15] | – | – | – | – | 93.9 | 94.9 | 159 | 65.9 | 83.4
HL-60 [24] | < 0.0301 | < 0.0301 | < 0.0301 | < 0.0301 | – | – | – | – | –
K-562 [16] | – | – | – | – | 91.1 | 90.4 | 118 | 101 | 90.1
KCL-22 [17] | – | – | – | – | 98.7 | 108 | 125 | 108 | 94
KU-812 [18] | – | – | – | – | 98.4 | 92.3 | 123 | 85.5 | 73.6
LAMA-84 [19] | – | – | – | – | 94.8 | 99.1 | 114 | 97.6 | 94.1
ML-2 [20] | – | – | – | – | 95.1 | 98.1 | 134 | 78.9 | 80
Mono-Mac-6 [21] | – | – | – | – | 93.3 | 99.4 | 129 | 75.2 | 57.6
NOMO-1 [22] | – | – | – | – | 97 | 99.1 | 118 | 91.4 | 93.4
SHI-1 [23] | – | – | – | – | 100 | 89.7 | 123 | 94.9 | 98.5
